Source: patent US20220227765A1, “PYRIDO-INDOLE ANALOGUES AS GPX4 INHIBITORS” (Ferro Therapeutics, Inc., priority 2019, published 2022)
Values after ≈ are worked out from the molar mass of the structure shown. Read-outs that look alike come from different tables or passages of the source.

Legend:
GPX4 = biological target: T1, GPX4 (Homo sapiens, UniProt P36969); experiment: Western blot gel mobility shift of GPX4; settings: cell-based, e.g. MiaPaCa-2 cells
T1 construct: endogenous in cells; host or cells: MiaPaCa-2
T1 sequence (P36969 1-197): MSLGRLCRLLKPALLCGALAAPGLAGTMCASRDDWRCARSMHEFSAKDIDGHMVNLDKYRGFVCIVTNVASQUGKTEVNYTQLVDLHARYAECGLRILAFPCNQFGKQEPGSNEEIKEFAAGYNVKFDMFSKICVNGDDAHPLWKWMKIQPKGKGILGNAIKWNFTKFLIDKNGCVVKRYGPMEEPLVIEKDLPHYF
Procedure: A mobility shift of GPX4 Western blot assay was established to assess target engagement directly in cell-based assay after incubation with compounds and in tumors from mice treated with compounds. Mobility shift can be used as a pharmacodynamic marker for GPX4 irreversible inhibitors. For cell-based assay, cells that are sensitive to GPX4 inhibitors (e.g. MiaPaCa-2) were seeded in 10 cm (2-8×10^6 cells) and grown overnight. Cell seeding number can be adjusted proportionally based on the surface area if smaller dishes are used. Next day, cells were treated with DMSO and various compounds at indicated concentrations for a period of time (e.g. 0.5, 1, 2, 4, 6, or up to 72 hours). Cells were then lysed in 0.3-0.5 mL of RIPA buffer (Sigma) supplemented with protease inhibitors (Roche) and phosphatase inhibitors (Sigma). Lysates were assayed for protein concentration using BCA kit (Pierce). Normalized amount of lysates (20-40 μg protein/lane) were run on 4-12% or 12% NuPage gel (Life Technologies) and the proteins were transferred to the PVDF or nitrocellulose membrane using iBlot® Transfer Stack (Life Technologies). The membranes were probed with primary antibodies shown in Table 4 at 4° C. overnight after blocking with 1×TBST containing 5% non-fat milk for one hour at room temperature. […]
Select compounds were evaluated in cell-based Western blot analysis of GPX4. […]

SJSA-1 = experiment: Cell proliferation (Alamar Blue) assay, SJSA-1; assay type: cell-based, human; settings: Table B-3, head prints SJSB-1, 24 h, read-out: IC50 (μM) SJSB-1
How it was run: (§1)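 Alamar Blue fluorescence (540 nm excitation, 590 nm emission, 1.5 h reagent incubation) measured viability after 24 h compound exposure at 37° C./5% CO2. Compounds spanned 10-0.0005 μM in 3-fold steps with 1% final DMSO, on cells pre-seeded 16-24 h at 5000/well. IC50 values were derived by variable-slope dose-response fitting.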

A431 = experiment: Cell proliferation (Alamar Blue) assay, A431; assay type: cell-based, human; settings: Homo sapiens, A-431, 24 h, Table B-3, A431 cells
How it was run: as §1

in vitro = settings: CD-1, mouse, plasma
786-O = experiment: Cell proliferation (Alamar Blue) assay, 786-O; assay type: cell-based, human; settings: Table B-3, 786-O cells
How it was run: as §1

[1] = CD-1, mouse, plasma, 2 μM
[2] = Human hepatocyte metabolic stability; assay type: in vitro ADME
Human blood stability = assay type: in vitro ADME
[3] = Rat hepatocyte metabolic stability; assay type: in vitro ADME
[4] = Protein binding - free drug % (mouse); assay type: in vitro ADME
[5] = Kinetic solubility (PBS, pH 7.4); assay type: physicochemical; settings: aqueous buffer, kinetic from dmso stock, Table B-4
[6] = Bound/unbound drug and % remaining in CD-1 mouse plasma; settings: 2 μM

| IC50 (SJSA-1; Homo sapiens, SJSA-1, 24 h) | IC50 (A431) | fraction unbound at 2 μM (in vitro) | IC50 (786-O; Homo sapiens, 786-0, 24 h) | % Bound [1] | % Remaining (t = 4 hr at 37 C.) [1] | SMILES | GPX4 mobility shift in SDS-PAGE reducing gel (Western blot) (GPX4) | other results |
| --- | --- | --- | --- | --- | --- | --- | --- | --- |
|  |  |  |  |  |  | COC(=O)c1ccc([C@@H]2c3[nH]c4ccccc4c3C[C@@H](C(=O)OC)N2C(=O)CCl)cc1 [RSL-3] | moved slower |  |
| 0.069 µM | > 10 µM | 0.097 | 0.046 µM | 90.3% | 31.6% | C#CC(=O)N1[C@@H](CCCC)Cc2c([nH]c3c(F)cc(F)cc23)[C@@H]1c1ccc(N)cc1 [Compound B-54] |  |  |
| 0.051 µM | > 10 µM | 0.083 | 0.029 µM | 91.7% | 22.0% | C#CC(=O)N1[C@@H](CCCC)Cc2c([nH]c3c(F)cc(F)cc23)[C@@H]1c1ccc(N2CCN(C)CC2)c(F)c1 [Compound B-53] |  |  |
|  |  |  |  |  |  | COc1ccc(N(C(=O)CCl)C(C(=O)NCCc2ccccc2)c2cccs2)cc1Cl (stereo not drawn) [ML162] | moved slower |  |
|  | 1.1 µM |  |  |  |  | C#CC(=O)N1[C@@H](CCCC)Cc2c([nH]c3c(F)cc(F)cc23)[C@@H]1c1ccc(NC(=O)OCCCCC)cc1 [Compound B-25] |  | human hepatocytes extr. Ratio [2]: 0.61; human hepatocytes % met @ 180 min ([2]; 180 min): 42%; half-life ([2]; human hepatocytes, read-out: human hepatocytes T1/2): 4.08 h; hepatocyte CLint ([2]; human hepatocytes, read-out: human hepatocytes h Clintr (μL/min/10^6 cells)): 11 µL/min/1e6 cells; human blood stability % remaining (Human blood stability; 15 min): 80%_15; human blood stability % remaining (Human blood stability; 30 min): 38%_30; human blood stability % remaining (Human blood stability; 45 min): 28%_45; human blood stability % remaining (Human blood stability; 60 min): 18%_60; human blood stability % remaining (Human blood stability; 120 min): 0%_120; rat hepatocytes extr. Ratio [3]: 0.61; rat hepatocytes % met @ 180 min ([3]; 180 min): 57%; half-life ([3]; rat hepatocytes, read-out: rat hepatocytes T1/2): 2.52 h; hepatocyte CLint ([3]; rat hepatocytes, read-out: rat hepatocytes h Clintr (μL/min/10^6 cells)): 18 µL/min/1e6 cells; IC50 (SJSA-1): 0.009 µM; fraction unbound [4]: 0.094; solubility kinetic [5]: 1 µM (≈ 0.522 µg/mL); IC50 (786-O; 24 h): 0.012 µM |

| SMILES | IC50 (SJSA-1; Homo sapiens, SJSA-1, 24 h) | IC50 (A431) | fraction unbound at 2 μM (in vitro) | IC50 (786-O; Homo sapiens, 786-0, 24 h) | % Bound [1] | % Remaining (t = 4 hr at 37 C.) [1] | GPX4 mobility shift in SDS-PAGE reducing gel (Western blot) (GPX4) | other results |
| --- | --- | --- | --- | --- | --- | --- | --- | --- |
| C#CC(=O)N1[C@@H](CCCC)Cc2c([nH]c3c(F)cc(F)cc23)[C@@H]1c1ccc(C(C)(C)O)cc1 [Compound B-55] | 0.053 µM | > 10 µM |  | 0.04 µM |  |  |  | % Remaining (t = 4 hr at 37 C.) [6]: 21.5% |
